Measurements: patent US20260248924A1, “MITOCHONDRIA-TARGETED AGENTS FOR DISEASE PREVENTION AND TREATMENT” (THE METHODIST HOSPITAL, priority 2023, published 2026)
Entries after “also recorded” stand apart in the source; their conditions may differ.

Key:
[1] = system: lung tumorigenesis induced by benzo(a)pyrene; settings: in vivo; cited from earlier work
[2] = rat, in vivo; cited from earlier work
[3] = system: H2030-BrM3 cells; test: Orthotopic model of lung adenocarcinoma; format: in vivo, nude mice; settings: 4 μmol/kg, oral gavage 5 days/week for 3 weeks
Procedure: An orthotopic model of lung adenocarcinoma cells (H2030-BrM3 cells) in athymic nude mice was used. Nude mice (5 weeks old) were anesthetized with isoflurane and placed in the right lateral decubitus position. A total of 1×10^6 H2030-BrM3 cells in […] of growth factor reduced Matrigel in 50 μL of RPMI1640 medium were injected into the left lung through the left rib cage. […] Tumor growth and metastases were monitored over time by bioluminescence (after injection of D-luciferin, 150 μg/g) using Lumina IVIS 100 imager (Perkin Elmer, Waltham, MA). Mice were euthanized on day 28.
A study using an orthotopic model of lung adenocarcinoma in nude mice was conducted. H2030-BrM3 cells were injected into the lung. […] PEITC was not effective, as expected, because the applied dose (4 μmol/kg) is below the levels typically used in xenograft studies (Zhang, Q., et al., Mol Carcinog, 2020. 59(6): p. 590-603).

[4] = system: H2030-BrM3 cells; test: Lung cancer brain metastasis model (left ventricle injection); format: in vivo, NOD/SCID mice; settings: PEITC at 25-fold higher dose (printed 100 mol/kg), oral gavage
Procedure: Mice were imaged for luciferase expression as a marker of tumor growth, using an IVIS 100 imaging system, over five weeks after cell injection. Regions of interest were defined manually, and LivingImage and Igor software was used to determine total photon flux.
For the brain metastasis studies, female NOD/SCID mice (age 5 weeks) were used. H2030-BrM3 cells (2×10^5) were suspended in PBS (0.1 mL) and injected into the left ventricle under ultrasound guidance (ECHO 707, GE, Milwaukee, WI). […] Mice were treated by oral gavage 5 days per week and metastases were monitored periodically by bioluminescence. Mice were euthanized at day 28 after the arterial injection of tumor cells.

[5] = human, in vivo; cited from earlier work
[6] = in vivo; cited from earlier work
[7] = system: VC-induced lung tumors; test: VC-induced lung tumorigenesis study; format: in vivo, A/J mice; settings: 100 μmol/kg, oral gavage 5 days/week for 20 weeks
Procedure: Six-week-old female A/J mice were injected with VC (single i.p. dose, 16 mg/kg). […] Treatments were administered by oral gavage five times per week. After 18 weeks of treatment, the mice were euthanized. […] The rest of lungs were evaluated under a dissecting microscope to obtain the surface tumor count and individual tumor diameter. Tumor volume was calculated based on the formula V=4πr(3)/3. Tumor load (the total tumor volume in each mouse) was calculated from the sum of all tumors.

[8] = system: lung adenocarcinoma (LUAD) cell lines (H2030-BrM3, LKR-13); test: Cellular proliferation assay (IncuCyte cell confluence), PEITC vs Mito-PEITC; format: cell-based; settings: Homo sapiens, real-time cell confluence, both LUAD cell lines tested, read-out: IC50, inhibition of proliferation
[9] = system: B(a)P-induced lung tumors; test: B(a)P-induced lung tumorigenesis, post-initiation model; format: in vivo, A/J mice; settings: 100 μmol/kg, 5 days/week, 20 weeks

For S=C=NCCc1ccccc1 [PEITC, phenethyl isothiocyanate], the “efficacy against lung tumorigenesis induced by benzo(a)pyrene” value [1] is listed as “not effective”, the “toxicity for female rats” value [2] is listed as “extremely low toxicity” and the “effect on orthotopic lung tumor growth” value [3] is listed as “not effective”. For the same compound, the “effect on lung cancer brain metastasis” value [4] was “ineffective; also recorded: does not inhibit brain metastasis”, the “safety in clinical trial” value [5] was “safe” and the blood-brain barrier passage [6] was “crosses the blood-brain barrier”. For the same compound, the plasma protein binding [6] was “high”, the “VC-induced lung tumor development” value [7] was “ineffective” and the IC50 [8] was 12 µM. The “B(a)P-induced lung tumor development” value [9] was “ineffective”.
